Experimental data published in patent publication US20090286744A1, “Treatment of asthma” (IMMUNEREGEN BIOSCINECES INC., priority 2005, published 2009).
Ends that are not written are not given here.

System: PARP-1
Experiment: Immunoblotting for PARP-1 in alveolar macrophages pre-treated with JP-8 and substance P
Format: cell-based
Conditions: PAM pre-treated with 8 ug/ml of JP-8 and substance P; 24 hours; immunoblotting (FIG. 1)
Method: Alveolar macrophages (PAM) were pre-treated with 8 ug/ml of JP-8 and substance P, or left untreated. After 24 hours, protein was extracted from the PAM and analyzed by immunoblotting for PARP-1, procaspase-3, p53, and GAPDH.

Substance P (RPKPQQFFGLM-NH2; listed as Homo sapiens)
PARP-1 expression in alveolar macrophages: causes degradation of PARP-1 expression in alveolar macrophages in a dose-dependent manner
